This assay deals with cell lines harbouring ras or FGFR3 activating mutations especially multiple myeloma cell lines. In words: potency toward cell lines harbouring ras or FGFR3 activating mutations. The format is cell-based. The following applies: especially multiple myeloma cell lines harbouring the ras or FGFR3.

Results on one compound are retold here after patent publication US20090286770A1, “Use of Staurosporine Derivatives for the Treatment of Multiple Myeloma” (priority 2004, published 2009).

With `CO[C@@H]1[C@H](N(C)C(=O)c2ccccc2)C[C@H]2O[C@]1(C)n1c3ccccc3c3c4c(c5c6ccccc6n2c5c31)C(=O)NC4` [MIDOSTAURIN, N-[(9S,10R,11R,13R)-2,3,10,11,12,13-hexahydro-10-methoxy-9-methyl-1-oxo-9,13-epoxy-1H,9H-diindolo[1,2,3-gh:3′,2′,1′-lm]pyrrolo[3,4-j][1,7]benzodiazonin-11-yl]-N-methylbenzamide], the “potency toward cell lines harbouring ras or FGFR3 activating mutations” value is “unexpected high potency”.
